The text below walks through data of US6063782A, “Pyrrolopyridazine derivatives” (Sankyo Company, Limited, priority 1994, dated 2000).

For experiment [1], the target named is proton.potassium-adenosine triphosphatase (H+.K+-ATPase) (Sus scrofa, UniProt P19156). As to the kind of experiment: Proton.potassium-adenosine triphosphatase (H+.K+-ATPase) inhibition test. It counts as biochemical. As to conditions: microsomal fraction of porcine gastric mucosa, pH=6.85, 37° C.; result given in words only. How it is done: Proton.potassium-adenosine triphosphatase (H^+.K^+ -ATPase) activation test
proton.potassium-adenosine triphosphatase (H+.K+-ATPase), sequence (P19156 whole entry): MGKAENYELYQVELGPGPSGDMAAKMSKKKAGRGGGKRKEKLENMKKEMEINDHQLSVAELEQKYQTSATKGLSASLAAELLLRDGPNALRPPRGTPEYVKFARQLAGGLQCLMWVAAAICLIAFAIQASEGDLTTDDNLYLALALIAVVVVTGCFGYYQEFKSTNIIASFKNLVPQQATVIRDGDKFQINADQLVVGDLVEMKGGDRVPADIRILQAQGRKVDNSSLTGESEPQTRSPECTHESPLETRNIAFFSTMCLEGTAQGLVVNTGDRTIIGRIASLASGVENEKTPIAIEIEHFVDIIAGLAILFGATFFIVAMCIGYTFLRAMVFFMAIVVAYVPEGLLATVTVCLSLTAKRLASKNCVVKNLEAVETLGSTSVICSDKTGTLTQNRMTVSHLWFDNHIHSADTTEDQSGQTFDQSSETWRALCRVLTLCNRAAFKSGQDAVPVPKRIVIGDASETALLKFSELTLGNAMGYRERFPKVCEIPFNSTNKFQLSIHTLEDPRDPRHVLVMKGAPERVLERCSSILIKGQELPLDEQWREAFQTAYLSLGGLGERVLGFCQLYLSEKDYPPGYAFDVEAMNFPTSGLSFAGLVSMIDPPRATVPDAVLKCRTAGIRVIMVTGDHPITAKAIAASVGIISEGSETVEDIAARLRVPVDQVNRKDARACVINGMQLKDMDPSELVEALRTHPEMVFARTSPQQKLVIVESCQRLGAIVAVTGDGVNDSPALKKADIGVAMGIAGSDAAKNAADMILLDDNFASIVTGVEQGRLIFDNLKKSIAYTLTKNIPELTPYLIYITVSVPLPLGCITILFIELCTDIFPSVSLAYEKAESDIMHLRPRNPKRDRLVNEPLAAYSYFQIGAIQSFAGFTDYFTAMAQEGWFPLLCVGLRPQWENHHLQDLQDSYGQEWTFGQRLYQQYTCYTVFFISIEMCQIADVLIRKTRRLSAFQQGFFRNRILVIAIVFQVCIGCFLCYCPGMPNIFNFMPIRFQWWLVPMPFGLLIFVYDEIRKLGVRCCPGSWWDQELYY
proton.potassium-adenosine triphosphatase (H+.K+-ATPase), sequence (P18434 whole entry partner): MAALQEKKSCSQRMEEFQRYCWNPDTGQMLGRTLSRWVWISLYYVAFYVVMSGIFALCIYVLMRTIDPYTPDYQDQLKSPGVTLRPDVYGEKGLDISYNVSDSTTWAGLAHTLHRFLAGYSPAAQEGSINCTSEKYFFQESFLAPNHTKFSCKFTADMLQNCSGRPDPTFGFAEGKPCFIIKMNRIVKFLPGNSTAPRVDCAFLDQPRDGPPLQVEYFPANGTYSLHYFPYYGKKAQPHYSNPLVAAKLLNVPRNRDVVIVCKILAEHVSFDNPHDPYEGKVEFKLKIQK
According to the method reported by Sachs et al. [J. Biol. Chem., 251, 7690 (1976)], a microsomal fraction obtained from homogenized fresh porcine gastric mucosa by density gradient ultracentrifugation was used as the proton.potassium-adenosine triphosphatase preparation, 10 μl of a solution of a test compound in dimethylsulfoxide were added to 0.75 ml of 70 mM tris-HCl buffer solution (magnesium chloride 5 mM, potassium chloride 20 mM and pH=6.85) containing from 30 to 80 μg/ml (in terms of protein concentration) of the enzyme preparation and the mixture was incubated for 45 minutes at 37° C. with shaking at 200 times per minute. The enzyme reaction was initiated by adding 0.25 ml of 8 mM disodium adenosine triphosphate solution. After 20 minutes of the reaction time, the reaction was stopped by adding 1 ml of a 10k trichloroacetic acid-active carbon (100 mg) solution. The reaction solution was centrifuged (4° C., 3000 rpm, 15 minutes) and the inorganic phosphate in the supernatant prepared from adenosine triphosphate by hydrolysis was measured by colorimetry, according to the method of Yoda and Hokin [Biochem. Biophys. Res. Commun., 40, 880 (1970)]. In a similar manner, the amount of inorganic phosphate was measured in a reaction solution in the absence of potassium chloride. From the difference between the phosphate amounts in the presence and absence of potassium chloride, the proton-potassium-adenosine triphosphatase activity was calculated. Based on the activity value in the control and the values in the test compound at the various concentrations tested, the inhibiting rates (%) and then the 50? inhibiting concentrations (IC50) to proton.potassium-adenosine triphosphatase activity were obtained.

The subject of a further experiment is gastric acid secretion. The experiment can be described thus: Gastric acid secretion activity test using pyloric ligation in rats (Shay rat method). It counts as in vivo. As to conditions: male SD rats, 20 mg/kg injected into the duodenal region, 4 hours, result given in words only. How it is done: Gastric acid secretion activity test using pyloric ligation in rats (Shay rat method)
Pyloric ligation was conducted based on the method of Shay et al. [Gastroenterology, 5, 43 (1945)]. Male rats of SD strain were fasted for 24 hours; their abdomens were sectioned during anesthesia under ether. The duodenal and pyloric regions were exposed and the latter was ligated. A solution of a test compound (10 mg/ml) prepared by use of 1.5w parts of dimethylacetamide, 68.5% parts of polyethyleneglycol (PEG-400) and 30% parts of physiological saline solution, was injected into the duodenal region for the dose to be 20 mg/kg by use of a 1-ml syringe and an injection needle (26G). After injection of the test compound, the abdominal region was sutured. The animals were allowed to a stand for 4 hours without feeding food and water and then sacrified with carbon dioxide gas. The stomach was excised and gastric juice was gathered. The gastric juice sample was centrifuged (4° C., 2500 rpm, 15 minutes). The amount of the supernatant was measured to be as the gastric secretion. The acidity of the gastric juice was determined by the amount (ml) of 0.01 N sodium hydroxide solution required for titration of 0.1 ml of the supernatant to pH 7.0 by use of-an auto-titrating apparatus. The value of gastric acid secretion was calculated from the value of gastric secretion and the acidity of gastric juice. The inhibiting rate was obtained from the values of gastric acid secretion of the control group and of the administered group.

Experiment [2] has as its system Helicobacter pylori strains 9470, 9472 and 9474. As to the kind of experiment: Antibacterial activity against Helicobacter pylori. It counts as cell-based. As to conditions: strains 9470, 9472 and 9474, 37° C., 3 days, slightly aerobic; result given in words only. As for the experimental part:
Antibacterial activity against Helicobacter pylori The antibacterial activity of the compounds of the present invention were evaluated by measuring the minimum inhibitory concentration values (MIC) of the present compounds against Helicobacter pylori strains 9470, 9472 and 9474. These strains of Helicobacter pylori were incubated for 4 days on a plate medium. The medium was prepared by dissolving brain heart infusion agar (Product of DIFCO) in a defined amount of distilled water, by sterilization in an autoclave, injecting horse blood (Product of Nihon Seibutsu Zairyo Co.) into each plate for the medium to contain 7% of the blood and by solidifying. Under slightly aerobic conditions, Helicobacter pylori cultivated at 37° C. for 4 days was suspended in a physiological saline solution for its inocular size to be about 10^8 CFU/ml. The suspension was diluted 100 times, and about 10 μl of the diluted suspension was inoculated on a medium for MIC determination. The medium for MIC determination used had the same compounds as those for preculture. […] In a similar way to the preculture, Helicobacter pylori was cultivated at 37° C. for 3 days under slightly aerobic conditions. […] The minimum concentration which gave no bacterial growth was regarded as MIC of the compound of the present invention.

Regarding `C=CCn1c(C)c(C)c2cnnc(OCc3ccc(Cl)cc3Cl)c21` [Example 17, 7-(2,4-Dichlorobenzyloxy)-2,3-dimethyl-1-(2-propenyl)pyrrolo[2,3-d]pyridazine], the “inhibiting concentrations (IC50) to proton.potassium-adenosine triphosphatase activity” value (from here on “inhibiting concentrations (IC50)”) in experiment [1] is recorded as “excellent activity”. The “inhibiting rate of gastric acid secretion” value (“inhibiting rate” for short) in the experiment on gastric acid secretion is “excellent activity”. Moreover, the “minimum inhibitory concentration (MIC) against Helicobacter pylori” value (“minimum inhibitory concentration (MIC)” below) in experiment [2] is on record as “excellent antibacterial activity”.
Take `CC=CCn1c(C)c(C)c2cnnc(OCc3ccc(Cl)cc3F)c21` [Example 48, 1-(2-Butenyl)-7-(4-chloro-2-fluorobenzyloxy)-2,3-dimethylpyrrolo[2,3-d]pyridazine]: in experiment [1], the “inhibiting concentrations (IC50)” value is reported as “excellent activity”. For the same compound, in the experiment on gastric acid secretion, the “inhibiting rate” value is reported as “excellent activity”. Moreover, the “minimum inhibitory concentration (MIC)” value in experiment [2] is “excellent antibacterial activity”.
Regarding `CC=CCn1c(C)c(C)c2cnnc(OCc3ccc(F)cc3)c21` [Example 1, 1-(2-Butenyl)-7-(4-fluorobenzyloxy)-2,3-dimethylpyrrolo[2,3-d]pyridazine], the “inhibiting concentrations (IC50)” value in experiment [1] was “excellent activity”. Moreover, the “inhibiting rate” value in the experiment on gastric acid secretion is reported as “excellent activity”. In addition, in experiment [2], the “minimum inhibitory concentration (MIC)” value was “excellent antibacterial activity”.
